Measurements taken from PubChem BioAssay AID720688 (NMMLSC, 2013).
Calls of active or inactive are those of the source.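 Rule for the calls: active = half-effect concentration at most 10 µM, response change at least 30% across doses, and a curve fit passing quality checks; inactive = the rest.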

Biological target: Cell division control protein 42 homolog (Homo sapiens) (UniProt P60953)
Assay: Cdc42 wildtype GTP-binding inhibitors, late-stage follow-up, mechanism study for Ras-family GTPase inhibitor project, biochemical, protein source comparison, flow cytometry beads, Bodipy-FL-GTP (AID 720688)
Conditions: GST-Cdc42 beads

Chain of Cell division control protein 42 homolog (Homo sapiens) (P60953 whole entry, looked up): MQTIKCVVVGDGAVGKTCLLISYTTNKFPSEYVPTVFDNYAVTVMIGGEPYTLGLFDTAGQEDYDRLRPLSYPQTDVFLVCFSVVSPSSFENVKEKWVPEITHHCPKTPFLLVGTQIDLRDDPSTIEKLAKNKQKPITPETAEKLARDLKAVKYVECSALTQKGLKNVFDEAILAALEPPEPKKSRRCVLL

EC50 (protein source 2) [µM] | % response remaining, lower = inhibition (protein source 2, at 100 µM (top of the series)) | SMILES
18.6 |  | CC1(C)Cc2c(sc(NC(=S)NC(=O)c3cccc(N=[N+]=[N-])c3)c2C(=O)O)CO1
 | inactive | CC1(C)Cc2c(sc(NC(=S)NC(=O)c3ccc(N=[N+]=[N-])cc3)c2C(=O)O)CO1
